Results as given in patent US20250120961A1, “P53 MODULATORS” (Nested Therapeutics, Inc., priority 2023, published 2025).

Target: His-tagged p53-Y220C DNA binding domain (Homo sapiens, UniProt P04637, Y220C)
Experiment: Biochemical p53-Y220C and DNA binding assay (HTRF)
Settings: inflection point of 10 points dose titration, 4 parameter curve fit; p53-Y220C DBD 100 nM, biotinylated dsDNA 200 nM, 27 to 29° C.; read-out: HTRF IP
From the text: Biological Example 1. Biochemical p53-Y220C and DNA Binding Assay
The compounds of this invention can bind to p53-Y220C and increase the ability of the mutant p53 to bind to DNA at higher temperatures. His-tagged p53-Y220C DNA binding domain containing amino acid 94-312 is used to measure DNA binding activities in vitro with the sequence described below. (SEQ ID NO: 1: […]. Biotin labeled double strand DNA (dsDNA) containing consensus p53 binding sequence (SEQ ID NO: 2: Forward: 5′-(biotin)-[…]-3′; Reverse: 5′-(biotin)-[…]-3′) is used to measure protein-DNA binding activities. Compounds, His-tagged p53-Y220C DBD proteins (100 nM), and biotinylated dsDNA (200 nM) were mixed in ice-cold assay buffer containing DPBS, 20 mM NaCl, and 0.5% BAS, and incubated at 4° C. overnight in 384-well plate. Plates were transferred to incubator at 27 to 29° C. with constant shaking for 60 minutes. Equal volume of Homogeneous Time-Resolved Fluorescence (HTRF) dyes containing mAb anti-6HIS Tb cryptate gold and d2 labeled streptavidin in the assay buffer was added to each well and incubated at 27 to 29° C. with constant shaking for 60 minutes. The plate was read using Envision multimode plate reader. Reference compound 1 was used as high control and DMSO was used as low control. The percentage activation (A %) of protein-DNA binding by compounds was normalized by setting up high control (reference compound) as […] and low control (DMSO) as 0% (A %=(HTRF ratio of compound-HTRF ratio of low control)/(HTRF ratio of high control-HTRF ratio of low control)*500). 10 points dose titration curves for each compound were analyzed by 4 parameter curve fit and inflection point (IP) was reported. Reference compound 1 is shown below Table 1. Compounds of the invention are active in the HTRF assay. Data in Table 1 collected using Biological Example 1.

EC50 [nM] | SMILES
> 1000 | CN1CC[C@@H](Nc2cccc3c(CC(F)(F)F)c(/C=C/C(O)c4ccccn4)sc23)[C@@H](F)C1 (stereo partly drawn) [Example 5-2, (E)-3-(7-(((3S,4R)-3-fluoro-1-methylpiperidin-4-yl)amino)-3-(2,2,2-trifluoroethyl)benzo[b]thiophen-2-yl)-1-(pyridin-2-yl)prop-2-en-1-ol]
100 to 1000 | CN1CC[C@@H](Nc2cccc3c(CC(F)(F)F)c(/C=C/C(O)c4cn[nH]c4)sc23)[C@@H](F)C1 (stereo partly drawn) [Example 5-8, (E)-3-(7-(((3S,4R)-3-fluoro-1-methylpiperidin-4-yl)amino)-3-(2,2,2-trifluoroethyl)benzo[b]thiophen-2-yl)-1-(1H-pyrazol-4-yl)prop-2-en-1-ol]
100 to 1000 | CN1CC[C@@H](Nc2cccc3c(CC(F)(F)F)c(/C=C/C(O)c4cccnc4)sc23)[C@@H](F)C1 (stereo partly drawn) [Example 5-4, (E)-3-(7-(((3S,4R)-3-fluoro-1-methylpiperidin-4-yl)amino)-3-(2,2,2-trifluoroethyl)benzo[b]thiophen-2-yl)-1-(pyridin-3-yl)prop-2-en-1-ol]
100 to 1000 | Cc1cc(CO/N=C/c2sc3c(N[C@@H]4CNC[C@@H]4F)cccc3c2CC(F)(F)F)no1 [Example 3-7, (E)-7-(((3R,4S)-4-fluoropyrrolidin-3-yl)amino)-3-(2,2,2-trifluoroethyl)benzo[b]thiophene-2-carbaldehyde O-((5-methylisoxazol-3-yl)methyl) oxime]
100 to 1000 | O=C1CC(CO/N=C/c2sc3c(N[C@@H]4CNC[C@@H]4F)cccc3c2CC(F)(F)F)CN1 (stereo partly drawn) [Example 3-8, (E)-7-(((3R,4S)-4-fluoropyrrolidin-3-yl)amino)-3-(2,2,2-trifluoroethyl)benzo[b]thiophene-2-carbaldehyde O-((5-oxopyrrolidin-3-yl)methyl) oxime]
100 to 1000 | Cc1nnc(CO/N=C/c2sc3c(N[C@@H]4CNC[C@@H]4F)cccc3c2CC(F)(F)F)o1 [Example 3-6, (E)-7-(((3R,4S)-4-fluoropyrrolidin-3-yl)amino)-3-(2,2,2-trifluoroethyl)benzo[b]thiophene-2-carbaldehyde O-((5-methyl-1,3,4-oxadiazol-2-yl)methyl) oxime]

Further lines, the compound ahead of its results:

SMILES | EC50 [nM]
CN1C[C@H](F)[C@H](Nc2cccc3c(CC(F)(F)F)c(/C=N/OCC(C)(C)O)sc23)C1 [Example 2-21, (E)-7-(((3R,4S)-4-fluoro-1-methylpyrrolidin-3-yl)amino)-3-(2,2,2-trifluoroethyl)benzo[b]thiophene-2-carbaldehyde O-(2-hydroxy-2-methylpropyl) oxime] | 100 to 1000
OC(CO/N=C/c1sc2c(N[C@@H]3CNC[C@@H]3F)cccc2c1CC(F)(F)F)Cn1cccn1 (stereo partly drawn) [Example 1-27, (E)-7-(((3R,4S)-4-fluoropyrrolidin-3-yl)amino)-3-(2,2,2-trifluoroethyl)benzo[b]thiophene-2-carbaldehyde O-(2-hydroxy-3-(1H-pyrazol-1-yl)propyl) oxime] | 100 to 1000
O=C1CCC(CO/N=C/c2sc3c(N[C@@H]4CNC[C@@H]4F)cccc3c2CC(F)(F)F)N1 (stereo partly drawn) [Example 2-18, (E)-7-(((3R,4S)-4-fluoropyrrolidin-3-yl)amino)-3-(2,2,2-trifluoroethyl)benzo[b]thiophene-2-carbaldehyde O-((5-oxopyrrolidin-2-yl)methyl) oxime] | 100 to 1000
NCC(CO)O/N=C/c1sc2c(N[C@@H]3CNC[C@@H]3F)cccc2c1CC(F)(F)F (stereo partly drawn) [Example 1-9, (E)-7-(((3R,4S)-4-fluoropyrrolidin-3-yl)amino)-3-(2,2,2-trifluoroethyl)benzo[b]thiophene-2-carbaldehyde O-(1-amino-3-hydroxypropan-2-yl) oxime] | > 1000
CN1CC[C@@H](Nc2cccc3c(CC(F)(F)F)c(/C=N/OCc4nc5ccccc5[nH]4)sc23)[C@@H](F)C1 [Example 2-15, (E)-7-(((3S,4R)-3-fluoro-1-methylpiperidin-4-yl)amino)-3-(2,2,2-trifluoroethyl)benzo[b]thiophene-2-carbaldehyde O-((1H-benzo[d]imidazol-2-yl)methyl) oxime] | 100 to 1000
CO/N=C/c1sc2c(N[C@@H]3CCN(C)C[C@@H]3F)cccc2c1CC(F)(F)F [Example 2-14, (E)-7-(((3S,4R)-3-fluoro-1-methylpiperidin-4-yl)amino)-3-(2,2,2-trifluoroethyl)benzo[b]thiophene-2-carbaldehyde O-methyl oxime] | > 1000
CNC(=O)c1ccc(CO/N=C/c2oc3c(N[C@@H]4CCN(C)C[C@@H]4F)cccc3c2SC(F)(F)F)c(NC)c1 [Example 2-34, 4-(((((E)-(7-(((3S,4R)-3-fluoro-1-methylpiperidin-4-yl)amino)-3-((trifluoromethyl)thio)benzofuran-2-yl)methylene)amino)oxy)methyl)-N-methyl-3-(methylamino)benzamide] | > 1000
CC[C@@H](O)CO/N=C/c1sc2c(N[C@@H]3CNC[C@@H]3F)cccc2c1CC(F)(F)F [Example 1-1, (E)-7-(((3R,4S)-4-fluoropyrrolidin-3-yl)amino)-3-(2,2,2-trifluoroethyl)benzo[b]thiophene-2-carbaldehyde O-((R)-2-hydroxybutyl) oxime] | 100 to 1000
OC1CNCCC1O/N=C/c1sc2c(N[C@@H]3CNC[C@@H]3F)cccc2c1CC(F)(F)F (stereo partly drawn) [Example 1-33, (E)-7-(((3R,4S)-4-fluoropyrrolidin-3-yl)amino)-3-(2,2,2-trifluoroethyl)benzo[b]thiophene-2-carbaldehyde O-(3-hydroxypiperidin-4-yl) oxime] | > 1000
OC1(CO/N=C/c2sc3c(N[C@@H]4CNC[C@@H]4F)cccc3c2CC(F)(F)F)CCCNC1 (stereo partly drawn) [Example 1-32, (E)-7-(((3R,4S)-4-fluoropyrrolidin-3-yl)amino)-3-(2,2,2-trifluoroethyl)benzo[b]thiophene-2-carbaldehyde O-((3-hydroxypiperidin-3-yl)methyl) oxime] | > 1000
OC1CNCC1O/N=C/c1sc2c(N[C@@H]3CNC[C@@H]3F)cccc2c1CC(F)(F)F (stereo partly drawn) [Example 1-36, (E)-7-(((3R,4S)-4-fluoropyrrolidin-3-yl)amino)-3-(2,2,2-trifluoroethyl)benzo[b]thiophene-2-carbaldehyde O-(4-hydroxypyrrolidin-3-yl) oxime] | 100 to 1000
NCC(O)CO/N=C/c1sc2c(N[C@@H]3CNC[C@@H]3F)cccc2c1CC(F)(F)F (stereo partly drawn) [Example 1-8, (E)-7-(((3R,4S)-4-fluoropyrrolidin-3-yl)amino)-3-(2,2,2-trifluoroethyl)benzo[b]thiophene-2-carbaldehyde O-(3-amino-2-hydroxypropyl)oxime] | 100 to 1000
F[C@H]1CNCC[C@H]1Nc1cccc2c(CC(F)(F)F)c(/C=N\OCC3CC3)sc12 [Example 2-11, (Z)-7-(((3S,4R)-3-fluoropiperidin-4-yl)amino)-3-(2,2,2-trifluoroethyl)benzo[b]thiophene-2-carbaldehyde O-cyclopropylmethyl oxime] | 100 to 1000
OC1CCCC1O/N=C/c1sc2c(N[C@@H]3CNC[C@@H]3F)cccc2c1CC(F)(F)F (stereo partly drawn) [Example 1-17, (E)-7-(((3R,4S)-4-fluoropyrrolidin-3-yl)amino)-3-(2,2,2-trifluoroethyl)benzo[b]thiophene-2-carbaldehyde O-(2-hydroxycyclopentyl) oxime] | 100 to 1000
